Assay results: ChEMBL document CHEMBL1201862, “PubChem BioAssay data set” (2004)
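Dose response: 5 concentrations. Exposure: 48 h. Format: 96-well plates. Endpoint: linear interpolation; highest concentration if not reached. GI50 marks 50% less growth.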 Activity calls are given as the source filed them. Rule as the data show it: active = GI50 up to about 1.1 µM and inactive = higher.

Legend:
Test in all cases: NCI tumour cell line growth inhibition, 48 h
HOP-62 = tested on: HOP-62
SW-620 = tested on: SW-620
OVCAR-5 = tested on: OVCAR-5
MDA-MB-435 = tested on: MDA-MB-435
OVCAR-4 = tested on: OVCAR-4
786-0 = tested on: 786-0
SF-295 = tested on: SF-295
KM12 = tested on: KM12
EKVX = tested on: EKVX
NCI-H460 = tested on: NCI-H460
SK-MEL-28 = tested on: SK-MEL-28
MDA-MB-231 = tested on: MDA-MB-231
UACC-62 = tested on: UACC-62
COLO 205 = tested on: COLO 205
RXF 393 = tested on: RXF 393
NCI-H522 = tested on: NCI-H522
Malme-3M = tested on: Malme-3M
DU-145 = tested on: DU-145
CCRF-CEM = tested on: CCRF-CEM
RPMI-8226 = tested on: RPMI-8226

| Structure (SMILES) | GI50 (HOP-62) | GI50 (SW-620) | GI50 (OVCAR-5) | GI50 (MDA-MB-435) | GI50 (OVCAR-4) | GI50 (786-0) | GI50 (SF-295) | GI50 (KM12) | GI50 (EKVX) | GI50 (NCI-H460) | GI50 (SK-MEL-28) | GI50 (MDA-MB-231) | GI50 (UACC-62) | GI50 (COLO 205) | GI50 (RXF 393) | GI50 (NCI-H522) | GI50 (Malme-3M) | GI50 (DU-145) | GI50 (CCRF-CEM) | GI50 (RPMI-8226) |
| --- | --- | --- | --- | --- | --- | --- | --- | --- | --- | --- | --- | --- | --- | --- | --- | --- | --- | --- | --- | --- |
| O=C(CSCC(=O)N/N=C\c1ccc(-c2ccccc2)cc1)N/N=C\c1ccc(-c2ccccc2)cc1 | 23 µM (inactive) | 16.3 µM (inactive) | 29.6 µM (inactive) | 18.8 µM (inactive) | 20.7 µM (inactive) | 33.2 µM (inactive) | 18.2 µM (inactive) | 17.9 µM (inactive) | 45.2 µM (inactive) | 30.9 µM (inactive) | 29.6 µM (inactive) | 10.7 µM (inactive) | 22.9 µM (inactive) | 13.6 µM (inactive) | 50.5 µM (inactive) | 13.5 µM (inactive) | 27.2 µM (inactive) | 33 µM (inactive) |  |  |
| Cc1cccc(NC(=O)/C=C/c2ccc([N+](=O)[O-])cc2)c1 | 16.7 µM (inactive) | > 45.3 µM (inactive) | > 42.6 µM (inactive) | > 36.6 µM (inactive) | > 41.4 µM (inactive) | > 34.6 µM (inactive) | 29 µM (inactive) | > 33.3 µM (inactive) | 23.2 µM (inactive) | > 43.5 µM (inactive) | > 42 µM (inactive) | 22.4 µM (inactive) | > 41.9 µM (inactive) | > 41.1 µM (inactive) | 34 µM (inactive) | 7.45 µM (inactive) | 0.838 µM (active) | > 38.7 µM (inactive) | 16 µM (inactive) |  |
| NNC(=O)C(O)C(O)C(=O)NN (stereo unspecified) | > 100 µM (inactive) | > 100 µM (inactive) | > 100 µM (inactive) | > 100 µM (inactive) | > 100 µM (inactive) | 98.4 µM (inactive) | > 100 µM (inactive) | > 100 µM (inactive) | > 100 µM (inactive) |  | > 100 µM (inactive) | > 100 µM (inactive) | > 100 µM (inactive) | > 100 µM (inactive) | > 100 µM (inactive) | 54.5 µM (inactive) | > 100 µM (inactive) | > 100 µM (inactive) | > 100 µM (inactive) | > 100 µM (inactive) |
| O=C1Nc2ccccc2/C1=N/NC(=S)Nc1cccc(Cl)c1 | 10.9 µM (inactive) | 4.09 µM (inactive) | 24.5 µM (inactive) | 17.7 µM (inactive) | 4.33 µM (inactive) | 5.12 µM (inactive) | 4.81 µM (inactive) | 7.26 µM (inactive) | 10.3 µM (inactive) | 5.52 µM (inactive) | 35.2 µM (inactive) | 11.1 µM (inactive) | 8.41 µM (inactive) | 8.93 µM (inactive) | 7.6 µM (inactive) | 21.9 µM (inactive) | 19.9 µM (inactive) | 22.5 µM (inactive) | 2.75 µM (inactive) |  |
| CC(C)C(=O)NCC[C@@H](CNC(=O)OC(C)(C)C)NC(=O)OC(C)(C)C | > 100 µM (inactive) | > 100 µM (inactive) | > 100 µM (inactive) | > 100 µM (inactive) | > 100 µM (inactive) | > 100 µM (inactive) | > 100 µM (inactive) | > 100 µM (inactive) | > 100 µM (inactive) | > 100 µM (inactive) | > 100 µM (inactive) | > 100 µM (inactive) | > 100 µM (inactive) | > 100 µM (inactive) | > 100 µM (inactive) | > 100 µM (inactive) | > 100 µM (inactive) | > 100 µM (inactive) | > 100 µM (inactive) |  |
| COc1ccc(NC(=O)/C(CC2=Nc3ccc([N+](=O)[O-])cc3NC2O)=N\NC(=O)C[N+](C)(C)C)c(OC)c1 (stereo unspecified) | 22.2 µM (inactive) | 94.8 µM (inactive) | > 100 µM (inactive) | > 100 µM (inactive) | 80 µM (inactive) | 30.1 µM (inactive) | > 100 µM (inactive) | 89.7 µM (inactive) | 54.7 µM (inactive) | 40.5 µM (inactive) | 97.9 µM (inactive) | 12.9 µM (inactive) | > 100 µM (inactive) | 43 µM (inactive) | 21.6 µM (inactive) | 18 µM (inactive) |  | 47.3 µM (inactive) | 40.3 µM (inactive) |  |
| CC1=C/C(=N\NS(=O)(=O)c2ccc([N+](=O)[O-])cc2)CC(C)(C)C1 | > 100 µM (inactive) | > 100 µM (inactive) | > 100 µM (inactive) | > 100 µM (inactive) |  | > 100 µM (inactive) | > 100 µM (inactive) | 76.2 µM (inactive) | > 100 µM (inactive) | 51.6 µM (inactive) | > 100 µM (inactive) | > 100 µM (inactive) | 50.2 µM (inactive) | > 100 µM (inactive) | > 100 µM (inactive) | 86.5 µM (inactive) | > 100 µM (inactive) | > 100 µM (inactive) | > 100 µM (inactive) | > 100 µM (inactive) |
